Columns and labels:
TPC1 cells = experiment: ADCC chromium-51 release assay with ESK1 and human PBMCs on inhibitor-pretreated TPC1 cells; format: cell-based; details: TPC1 pretreated 72 hrs with 100 nM trametinib, at 3 or 4 E:T ratios
Procedure: Peripheral blood mononuclear cells were derived from healthy donors by Ficoll density centrifugation after receiving informed consent on Memorial Sloan Kettering Institutional Review board-approved protocols. TPC1 cells treated with RET inhibitor drugs and DMSO control were labeled with chromium-51 and co-cultured with PBMCs and ESK (or its isotype control, hIgG1). Different E:T ratios were used and after 5 hrs of incubation at 37° C., the supernatant was harvested and chromium levels were measured by Chromium-51 release assay (Perkin Elmer). Higher chromium levels indicated higher levels of cytotoxicity.
After the addition of ESK and peripheral blood mononuclear cells for 5 hrs, chromium release was measured.
For each experiment reported, fresh peripheral blood mononuclear cells were derived from a healthy donor by Ficoll density centrifugation after receiving informed consent on Memorial Sloan Kettering Institutional Review Board-approved protocols. […] Cells were then labeled with 1 uCi/well chromium-51 for 1 hr at 37° C. […] Different effector:target ratios were used and after 5 hrs of incubation at 37° C., the supernatant was harvested and chromium levels were measured through standard chromium-51 release assay on a Top Count machine (Perkin Elmer).

Human T cells = experiment: IFN-gamma ELISpot of peptide stimulated T cells; format: cell-based; details: T cells of HLA-A*02:01 positive healthy donors, autologous CD14+ cells presenting peptide
Text: Peripheral blood mononuclear cells were again derived from healthy donors after receiving informed consent (see above). T cells were isolated by Ficoll density centrifugation and stimulated with pools of peptides that were selected from the population of: (1) new peptides that appeared after RET inhibitor treatment, (2) peptides found on cells before RET inhibitor treatment, and (3) irrelevant peptides not found on the target cells. CD14^+ cells were isolated from PBMCs by negative immunomagnetic cell separation using an isolation kit (Miltenyi Biotec). CD14 cells were used for stimulation in week one and autologous dendritic cells were generated for use thereafter. The purity of the cells was always more than 98%. Monocyte-derived dendritic cells (DCs) were generated from CD14+ cells, by culturing the cells in RPMI 1640 medium supplemented with 1% AP, 500 units/mL recombinant IL-4, and 1,000 units/mL GM-CSF. On days 2 and 4 of the incubation, fresh medium with IL-4 and GM-CSF was either added or replaced half of the culture medium. On day 6, maturation cytokine cocktail was added (IL-4, GM-CSF, 500 IU/mL IL-1, 1,000 IU/mL IL-6, 10 ng/ml TNF-α, and 1 ug/mL PGE-2).
An interferon-gamma ELISpot was performed at the beginning of week three. For this HA-Multiscreen plates (Millipore) were coated with 100 uL of mouse anti-human IFN-gamma antibody (10 ug/mL; clone 1-D1K, Mabtech #3420-2A) in PBS, incubated overnight at 4° C., washed with PBS to remove unbound antibody, and blocked with RPMI 1640/10% autologous plasma (AP) for 2 h at 37° C. Purified CD3^+ T cells (>98% pure) were plated with either autologous CD14^+ (10:1 E:APC ratio) or autologous DCs (30:1 E:APC ratio), Various test peptides were added to the wells at 20 ug/mL. Negative control wells contained. APCs and T cells without peptides or with irrelevant peptides. Positive control wells contained T cells plus APCs plus 20 ug/mL phytohemagglutinin (PHA, Sigma). All conditions were done in triplicates. Microtiter plates were incubated for 20 h at 37° C. and then extensively washed with PBS/0.05% Tween and 100 uL/well biotinylated detection antibody against human IFN-γ (2 ug/mL; clone 7-B6-1; Mabtech) was added. Plates were incubated for an additional 2 h at 37° C. and spot development was done as described. Spot numbers were read and determined by Zellnet Consulting In. T cell killing of target cells was measured at week five as described in the section of ADCC above.

Molecule: CC(=O)Nc1cccc(-n2c(=O)n(C3CC3)c(=O)c3c(Nc4ccc(I)cc4F)n(C)c(=O)c(C)c32)c1 [trametinib]
- improved lysis by ESK1 (TPC1 cells): about 10%

Molecule: GRKPPLLKK (irrelevant peptide) [GRKPPLLKK (SEQ ID NO:9), irrelevant peptide, negative control]
- T cell mediated IFN gamma response (ELISpot) (Human T cells): No response

Molecule: ILDKKVEKV (control peptide) [ILDKKVEKV (SEQ ID NO:7), control peptide found before drug treatment on TPC1 cells]
- T cell mediated IFN gamma response (ELISpot) (Human T cells): No response

Molecule: ILQAHLHSL (control peptide) [ILQAHLHSL (SEQ ID NO:8), control peptide found before drug treatment on TPC1 cells]
- T cell mediated IFN gamma response (ELISpot) (Human T cells): No response

Molecule: TYLEKAIKI (control peptide) [TYLEKAIKI (SEQ ID NO:6), control peptide found before drug treatment on TPC1 cells]
- T cell mediated IFN gamma response (ELISpot) (Human T cells): No response

Reference: patent US20210379046A1, “Methods of Treating Diseases Using Kinase Modulators” (Memorial Sloan Kettering Cancer Center, priority 2018, published 2021)
